Structures can show the parent of a compound that is named as a salt.
melting point [°C] | Compound
165 to 168 | CS(=O)(=O)Nc1ccc(C2(C(=O)N[C@H](CN3CCCC3)c3ccccc3)CC2)cc1
101.8 to 102.2 | CC(=O)c1cc(C2(C(=O)N[C@H](CN3CCCC3)c3ccccc3)CC2)ccc1O (stereo in doubt)
68 to 70 | CS(=O)(=O)c1cccc(C2(C(=O)N[C@H](CN3CCCC3)c3ccccc3)CC2)c1.Cl
129 to 130 | N#Cc1cccc(COc2cccc([C@@H](CN3CCCC3)NC(=O)C3(c4ccc5oc(=O)[nH]c5c4)CC3)c2)c1 (stereo in doubt)
220 to 221 | CN(C(=O)C1(c2ccccc2)CCCC1)[C@H](CN1CCCC1)c1ccccc1.Cl
160 to 162 | CS(=O)(=O)Nc1cccc(C2(C(=O)N[C@H](CN3CCCC3)c3cccc(OCC(=O)O)c3)CC2)c1
82 to 83 | O=C(N[C@H](CN1CCCC1)c1ccccc1)C1(c2ccc3[nH]ncc3c2)CC1 (stereo in doubt)
163 to 165 | O=C(N[C@H](CN1CCCC1)c1ccccc1)C1(c2ccc3c(c2)C=CS(=O)(=O)N3)CC1
134 to 136 | O=C(O)c1ccc(C2(C(=O)N[C@H](CN3CCCC3)c3ccccc3)CC2)cc1
132 to 134 | O=C(N[C@H](CN1CCCC1)c1cccc(O)c1)C1(c2ccc3oc(=O)[nH]c3c2)CC1
139 to 141 | NC(=O)c1cccc([C@@H](CN2CCCC2)NC(=O)C2(c3ccc4oc(=O)[nH]c4c3)CC2)c1
204 to 205 | Cl.O=C(N[C@H](CN1CCCC1)c1ccccc1)C1(c2ccccc2)CCCCC1
118 to 120 | Cl.O=C(N[C@H](CN1CCCC1)c1ccccc1)C1(c2cccc(OCc3ccccc3)c2)CC1
67 to 69 | CS(=O)(=O)Nc1cc(C2(C(=O)N[C@H](CN3CCCC3)c3ccccc3)CC2)ccc1F (stereo in doubt)
106 to 108 | N#Cc1cccc([C@@H](CN2CCCC2)NC(=O)C2(c3ccc4oc(=O)[nH]c4c3)CC2)c1 (stereo in doubt)
80 to 82 | Cl.O=C(N[C@H](CN1CCCC1)c1ccccc1)C1(c2cccc(O)c2)CC1
223 to 225 | CN(C(=O)C1(c2cnc3ccccc3c2)CC1)[C@H](CN1CCCC1)c1ccccc1.Cl
112 to 113 | COC(=O)c1cccc(Cn2c(=O)oc3ccc(C4(C(=O)N[C@H](CN5CCCC5)c5cccc(O)c5)CC4)cc32)c1
115 to 118 | O=C1Cc2ccc(C3(C(=O)N[C@H](CN4CCCC4)c4ccccc4)CC3)cc2N1
142 to 144 | O=C(N[C@H](CN1CC[C@H](O)C1)c1ccccc1)C1(c2ccc3oc(=O)[nH]c3c2)CC1
130 | CS(=O)(=O)Nc1cc(C2(C(=O)N[C@H](CN3CCCC3)c3ccccc3)CC2)ccc1F.Cl (stereo in doubt)
129 to 130 | O=C(N[C@H](CN1CCCC1)c1ccccc1)C1(c2ccc3oncc3c2)CC1
158.5 to 158.8 | C/C(=N/O)c1cc(C2(C(=O)N[C@H](CN3CCCC3)c3ccccc3)CC2)ccc1O (stereo in doubt)
96 to 98 | Cn1c(=O)oc2ccc(C3(C(=O)N[C@H](CN4CCCC4)c4ccccc4)CC3)cc21 (stereo in doubt)
119.6 to 119.8 | CS(=O)(=O)Nc1cccc(C2(C(=O)N[C@H](CN3CC[C@H](N)C3)c3ccccc3)CC2)c1 (as salt: trifluoroacetate)

melting point [°C] | Compound
92 to 94 | Cc1cc(C2(C(=O)N[C@H](CN3CCCC3)c3ccccc3)CC2)ccc1NS(C)(=O)=O (stereo in doubt)
101 to 103 | CS(=O)(=O)Oc1cccc([C@@H](CN2CCCC2)NC(=O)C2(c3ccc4oc(=O)[nH]c4c3)CC2)c1 (as salt: trifluoroacetate)
88 to 89 | N#Cc1ccc(COc2cccc([C@@H](CN3CCCC3)NC(=O)C3(c4ccc5oc(=O)[nH]c5c4)CC3)c2)cc1 (stereo in doubt)
148 to 150 | O=C(N[C@H](CN1CCCC1)c1ccccc1)C1(c2ccc3c(c2)NS(=O)(=O)C=C3)CC1
120 to 121 | NC(=O)c1cccc(C2(C(=O)N[C@H](CN3CCCC3)c3ccccc3)CC2)c1 (stereo in doubt)
107 to 109 | O=C(N[C@H](CN1CCCC1)c1cccc(-c2nn[nH]n2)c1)C1(c2ccc3oc(=O)[nH]c3c2)CC1
97 to 99 | O=C(N[C@H](CN1CCCC1)c1ccccc1)C1(c2nc3ccccc3s2)CC1
94 to 96 | O=C(N[C@H](CN1CCCC1)c1cccc(OCc2ccccc2)c1)C1(c2ccc3oc(=O)[nH]c3c2)CC1
158.5 to 158.8 | Cc1noc2ccc(C3(C(=O)N[C@H](CN4CCCC4)c4ccccc4)CC3)cc12 (stereo in doubt)
66.3 to 66.5 | CC(C)(C)OC(=O)N[C@H]1CCN(C[C@@H](NC(=O)C2(c3cccc(NS(C)(=O)=O)c3)CC2)c2ccccc2)C1
60 to 62 | CS(=O)(=O)Oc1ccc(C2(C(=O)N[C@H](CN3CC[C@H](O)C3)c3ccccc3)CC2)cc1.Cl
81.2 to 81.4 | CS(=O)(=O)Nc1cc(C2(C(=O)N[C@H](CN3CCCC3)c3ccccc3)CC2)c(F)cc1F (stereo in doubt)
216 to 217 | CN(C(=O)C1(c2ccccc2)CC1)[C@H](CN1CCCC1)c1ccccc1.Cl
142 to 144 | O=C(N[C@H](CN1CCCC1)c1ccccc1)C1(c2ccc3oc(=O)[nH]c3c2)CC1 (stereo in doubt)
92 to 94 | Cc1ccc(C2(C(=O)N[C@H](CN3CCCC3)c3ccccc3)CC2)cc1NS(C)(=O)=O (stereo in doubt)
101 to 103 | O=C(N[C@H](CN1CCCC1)c1ccccc1)C1(c2ccc3ccc(=O)[nH]c3c2)CC1 (stereo in doubt)
70 to 72 | CS(=O)(=O)Nc1cccc(C2(C(=O)N[C@@H](CN3CCCC3)c3cccc(OCc4ccccc4)c3)CC2)c1
114 to 116 | CS(=O)(=O)Nc1cccc([C@@H](CN2CCCC2)NC(=O)C2(c3ccc4oc(=O)[nH]c4c3)CC2)c1 (stereo in doubt)
207 to 209 | O=C(N[C@H](CN1CCCC1)c1ccccc1)C1(c2ccc3[nH]c(=O)[nH]c3c2)CC1 (stereo in doubt)
107.1 to 107.3 | Cl.O=C(N[C@H](CN1CCCC1)c1ccccc1)C1(c2ccccn2)CC1
239 to 241 | O=C(N[C@H](CN1CCCC1)c1ccccc1)C1(c2ccc3c(c2)NS(=O)(=O)O3)CC1
234 to 235 | CN(C(=O)C1(c2ccccc2)CCC1)[C@H](CN1CCCC1)c1ccccc1.Cl
103 to 105 | CS(=O)(=O)Nc1cccc(C2(C(=O)N[C@@H](CN3CCCC3)c3cccc(O)c3)CC2)c1
166 to 168 | Cl.O=C(O)Cn1c(=O)oc2ccc(C3(C(=O)N[C@H](CN4CCCC4)c4ccccc4)CC3)cc21
127 to 129 | O=C(N[C@H](CN1CCCC1)c1ccccc1)C1(c2ccc3[nH]cnc3c2)CC1 (stereo in doubt)

melting point [°C] | Compound
150 to 152 | CS(=O)(=O)c1ccc(C2(C(=O)N[C@H](CN3CCCC3)c3ccccc3)CC2)cc1
119 to 120 | COC(=O)c1ccc(Cn2c(=O)oc3ccc(C4(C(=O)N[C@H](CN5CCCC5)c5cccc(O)c5)CC4)cc32)cc1
232 to 233 | CN(C(=O)C1(c2ccccc2)CCCCC1)[C@H](CN1CCCC1)c1ccccc1.Cl
224 to 226 | O=C(N[C@H](CN1CC[C@H](O)C1)c1cccc([N+](=O)[O-])c1)C1(c2ccc3oc(=O)[nH]c3c2)CC1
176 to 178 | Cl.O=C(N[C@H](CN1CCCC1)c1ccccc1)C1(c2cnc3ccccc3c2)CC1
146 to 148 | CS(=O)(=O)Nc1cccc(C2(C(=O)N[C@H](CN3CCCC3)c3ccccc3)CC2)c1
125 to 127 | COc1cccc([C@@H](CN2CC[C@H](O)C2)NC(=O)C2(c3ccc4oc(=O)[nH]c4c3)CC2)c1
112 to 114 | O=C(N[C@H](CN1CC[C@H](O)C1)c1ccccc1)C1(c2ccncc2)CC1
201 to 202 | CS(=O)(=O)Nc1cccc(C2(C(=O)N[C@H](CN3CCCC3)C3CCCCC3)CC2)c1
137 to 139 | O=C(N[C@H](CN1CCCC1)c1ccccc1)C1(c2cccc(-c3nnn[nH]3)c2)CC1 (stereo in doubt)
80 to 81 | CN(C)S(=O)(=O)c1ccccc1C1(C(=O)N[C@H](CN2CCCC2)c2ccccc2)CC1
103 to 105 | COc1ccc(C2(C(=O)N[C@H](CN3CCCC3)c3ccccc3)CC2)cc1NS(C)(=O)=O (stereo in doubt)
92 to 94 | COc1cccc([C@@H](CN2CCCC2)NC(=O)C2(c3ccc4oc(=O)[nH]c4c3)CC2)c1
201 | NC(=O)c1ccc(C2(C(=O)N[C@H](CN3CCCC3)c3ccccc3)CC2)cc1 (stereo in doubt)
171 to 172 | O=C(N[C@H](CN1CCCC1)c1ccccc1)C1(c2ccc3[nH]c(=O)ccc3c2)CC1
175 to 177 | O=CNc1cc(C2(C(=O)N[C@H](CN3CCCC3)c3ccccc3)CC2)ccc1O (stereo in doubt)
94 to 95 | O=C(O)COc1ccc(C2(C(=O)N[C@H](CN3CCCC3)c3ccccc3)CC2)cc1 (stereo in doubt)
138 to 140 | O=C(N[C@H](CN1CCCC1)c1ccccc1)C1(c2ccc3c(c2)NS(=O)(=O)C3)CC1
182.2 to 182.4 | CS(=O)(=O)Nc1ccc(C2(C(=O)N[C@H](CN3CCCC3)c3ccccc3)CC2)cn1
78 to 80 | Cn1nnc2cc(C3(C(=O)N[C@H](CN4CCCC4)c4ccccc4)CC3)ccc21 (stereo in doubt)
80.6 to 80.8 | CN[C@H]1CCN(C[C@@H](NC(=O)C2(c3cccc(NS(C)(=O)=O)c3)CC2)c2ccccc2)C1
95 to 97 | Nc1cccc([C@@H](CN2CCCC2)NC(=O)C2(c3ccc4oc(=O)[nH]c4c3)CC2)c1 (stereo in doubt)
150 to 152 | Cl.O=C(N[C@H](CN1CCCC1)c1ccccc1)C1(c2cccnc2)CC1
124 to 125 | O=C(O)COc1cccc(C2(C(=O)N[C@H](CN3CCCC3)c3ccccc3)CC2)c1 (stereo in doubt)

— patent publication US9303027B2 (dated 2016)
